Among the data in article PMC6934184, “Selective DNA-PKcs inhibition extends the therapeutic index of localized radiotherapy and chemotherapy” (The Journal of Clinical Investigation, 2019) are inhibition values, retold here.

The target of the assay is T1, KIT N822K (Homo sapiens, UniProt P10721, N822K).
T1 construct: purchased Thermo Fisher Scientific (Life Technologies) SelectScreen
Description: SelectScreen LanthaScreen. In kind it is binding. The following applies: read-out: % displacement. How it is done: The in vitro kinase selectivity of NU5455 was determined using the SelectScreen Broad Assay Panel (Thermo Fisher Scientific) involving activity and binding assays (Supplemental Table 1). […] Class IA PI3Ks were measured using the p85α subunit.
Kinase [ATP] % Assay Kinase [ATP] % Assay Kinase [ATP] % Assay Kinase [ATP] % Assay […]
FLT3 Km app 9.1 Z HIPK1 (Myak) Km app 2.8 Z KIT N822K n/a -0.2 L EPHB4 Km app -5.3 Z […]
SGK (SGK1) Km app 8.5 Z MAP4K2 (GCK) Km app 2.7 Z TLK2 n/a -0.3 L STK38 (NDR) n/a -5.9 L
MERTK (cMER) Km app 8.3 Z CDK2/cyclin A Km app 2.7 Z TGFBR1 (ALK5) n/a -0.4 L MATK (HYL) Km app -6.3 Z
FYN Km app 8.3 Z EPHA1 Km app 2.7 Z CLK3 Km app -0.5 Z ABL1 E255K Km app -6.6 Z
TEC n/a 8.1 L CDK2/cyclin E1 n/a 2.7 L MAP3K14 (NIK) n/a -0.5 L STK17A (DRAK1) n/a -6.6 L
KIT V654A n/a 8.1 L TESK2 n/a 2.7 L AKT3 (PKB gamma) Km app -0.5 Z JAK2 JH1 JH2 Km app -6.7 Z
ROS1 Km app 8.0 Z SPHK1 Km app 2.7 A MAP3K9 (MLK1) Km app -0.5 Z PRKACB (PRKAC beta) n/a -6.8 L
FGFR3 K650E Km app 7.9 Z AMPK A2/B1/G1 Km app 2.6 Z IKBKB (IKK beta) Km app -0.6 Z PDGFRA (PDGFR alpha) Km app -6.8 Z
RAF1 (cRAF) Y340D Y341D 100 7.9 Z DYRK3 Km app 2.6 Z CAMK2A (CaMKII alpha) Km app -0.6 Z NEK9 Km app -7.2 Z
PI4KA (PI4K alpha) 10 7.8 A CSNK1D (CK1 delta) Km app 2.6 Z PRKCB1 (PKC beta I) Km app -0.7 Z PDK1 Km app -7.3 Z
HIPK2 Km app 7.8 Z ACVR2A n/a 2.5 L TTK n/a -0.7 L RPS6KB1 (p70S6K) Km app -7.8 Z […]

Structures are written as SMILES.

T1 sequence (P10721 26-976 N822K): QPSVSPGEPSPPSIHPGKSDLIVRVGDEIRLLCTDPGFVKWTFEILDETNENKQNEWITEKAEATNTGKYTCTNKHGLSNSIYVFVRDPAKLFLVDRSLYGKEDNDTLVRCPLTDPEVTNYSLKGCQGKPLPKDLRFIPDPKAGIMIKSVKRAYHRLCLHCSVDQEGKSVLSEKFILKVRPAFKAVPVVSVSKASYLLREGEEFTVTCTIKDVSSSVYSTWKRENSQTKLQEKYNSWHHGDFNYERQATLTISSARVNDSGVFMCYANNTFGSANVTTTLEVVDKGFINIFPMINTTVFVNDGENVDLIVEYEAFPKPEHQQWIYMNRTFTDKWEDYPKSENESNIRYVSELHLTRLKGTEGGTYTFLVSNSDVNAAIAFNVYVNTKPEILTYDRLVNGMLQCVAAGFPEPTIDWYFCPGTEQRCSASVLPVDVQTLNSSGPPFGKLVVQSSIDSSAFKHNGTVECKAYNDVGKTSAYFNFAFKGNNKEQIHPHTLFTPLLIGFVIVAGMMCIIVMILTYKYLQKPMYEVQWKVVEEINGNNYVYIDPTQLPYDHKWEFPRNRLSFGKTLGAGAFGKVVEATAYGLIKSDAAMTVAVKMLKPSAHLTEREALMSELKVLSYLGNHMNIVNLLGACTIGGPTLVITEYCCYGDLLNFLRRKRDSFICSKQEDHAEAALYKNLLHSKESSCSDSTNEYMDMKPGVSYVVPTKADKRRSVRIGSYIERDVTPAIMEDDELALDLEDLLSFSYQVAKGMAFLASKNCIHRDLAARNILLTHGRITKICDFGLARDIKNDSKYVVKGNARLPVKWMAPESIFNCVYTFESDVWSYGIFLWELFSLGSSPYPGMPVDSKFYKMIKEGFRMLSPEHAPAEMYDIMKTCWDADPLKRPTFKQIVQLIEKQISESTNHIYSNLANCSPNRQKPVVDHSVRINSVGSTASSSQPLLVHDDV

In the case of `CN(C(=O)CN1CCOCC1)c1ccc2sc3c(-c4cccc5c(=O)cc(N6CC7CCC(C6)O7)oc45)cccc3c2c1` [NU5455], the inhibition at 1 µM is -0.2%.
